Literature values in article PMC3289745 (Peptides, 2011).

System: conscious male rats
Details: central injection of neuronostatin; 30 minutes post-injection

neuronostatin
increase in plasma AVP levels relative to saline-injected controls: 2–3 times
